Test results: US20220339116A1, “LIPID NANOPARTICLES AS ORAL VEHICLES OF IMMUNOTHERAPY” (The Johns Hopkins University, priority 2019, published 2022)

Legend:
[1] = cited from earlier work
NOD mice = experiment: Diabetes onset in NOD mice after oral gavage; assay type: in vivo, mouse; conditions: amount identical to that used in Tofa-NLC; ongoing group
Text: FIG. 13. Oral administration of Tofa-NLC delays diabetes onset. We tested the effect of Tofa-NLC administration via oral gavage to two treatment groups: 1) 3 week-old NOD mice (corresponding to Pre-stage 1 in human patients) and 2) 10 week-old NOD mice (corresponding to advanced Stage 1 in human patients).
All these characteristics indicate that LNp would be a most valuable delivery system for the tissue selective actuation of a combination immunotherapy. We then began to define the effects of a transient administration of Tofa-NLC on diabetes development in NOD mice. […] We then tested the effect of Tofa-NLC administration via oral gavage to two treatment groups: 1) 3 week-old NOD mice (corresponding to Pre-stage 1 in human patients) and 2) 10 week-old NOD mice (corresponding to advanced Stage 1 in human patients). […] In particular, oral administration to 3-week-old NOD mice prevented onset of disease in 70% of the animals for more than 40 weeks.

[2] = tested on: bone marrow derived dendritic cells (DC); experiment: DC maturation in response to LPS with soluble Tofa (flow cytometry, ELISA); assay type: cell-based, mouse
Protocol: FIGS. 2A-2B. Jak inhibition impacts APC maturation. 2A, Representative graphs of surface expression of maturation markers on DC left untreated or exposed overnight to LPS+/−Tofa. 2B, Supernatants from DC cultures were tested for accumulation of the indicated cytokines by ELISA. n=3.
The latter two have been implicated in T1D development and inhibition of their accumulation would be a valuable effect.

Treg cells = experiment: T cell CFSE-Proliferation-Assay of Treg suppressive activity; assay type: cell-based; conditions: Treg at 2:1 or 4:1 T cell to Treg ratio; Tofa at 0.5 or 1 μM
Protocol: FIG. 3. […] Results of CFSE-Proliferation-Assay conducted with the addition of Treg cells (at either 2:1 or 4:1 T cell to Treg ratio) and Tofa (at 0.5 or 1 μM). Values are normalized to the extent of proliferation measured with no Treg.

Substance	Solubility in Dimethyl Sulfoxide [1] [mg/mL]	therapeutic effect on diabetes development (NOD mice)	release of inflammatory cytokines IL-6, IL-1, TNF-α ([2]; DC culture supernatants, ELISA)	up-regulation of CD80 and CD86 costimulatory molecules ([2]; DC exposed to LPS +/- Tofa)	up-regulation of MHC-II molecules ([2]; DC exposed to LPS +/- Tofa)	suppressive activity of Treg (Treg cells)
Filgotinib	85					
Tofacitinib		inferior (if not absent) therapeutic effect	reduction in release of the prototypical inflammatory cytokines	significant inhibition of the up-regulation of CD80 and CD86 costimulatory molecules	did not prevent the up-regulation of MHC-II molecules	preservation of regulatory activity
